Read-outs that look alike come from different tables or passages of the source.
Assays:
C3a production = experiment: Inhibition of C3a production in human serum (aggregated IgG, RIA); assay type: biochemical; settings: human serum, concentration inhibiting C3a production 50% relative to control
Protocol: The ability to inhibit complement was tested by assaying for specific inhibition of C3a and C5a production. For all experiments, a single human serum pool, to be used as a source of complement, was aliquoted and stored frozen at -70° C. Human IgG was heat-aggregated, aliquoted, and stored frozen at -70° C. For each experiment, serum aliquots were equilibrated at 37° C. with varying concentrations of the compounds tested. The classical complement pathway was initiated by the addition of aggregated human IgG. Control samples containing no IgG were always included. After a fixed reaction time of 10 minutes (determined in an earlier time-course study to provide a convenient time interval during which the production of C5a or C3a is nearly complete, i.e., greater than 90%), the levels of the released complement peptides (C5a or C3a) were determined by radioimmunoassay using commercially available radioimmunoassay (RIA) kits (C5a RIA, UpJohn Cat. No. 3250-02; C3a RIA, UpJohn Cat. No. 3245-01; C5a RIA, Amersham Cat. No. RPA.520; C3a RIA, Amersham RPA.518).
Since a competitive immunoassay was used, complement peptide (C5a and C3a) concentrations varied inversely with the counts. The Counts Bound (CB) for a sample was defined as the total counts (in counts per minute, cpm) measured in the pellet minus the counts measured in a nonspecific binding (NSB) control. The NSB control was a sample containing only tracer peptide (^125 I-labelled) and second precipitating antiserum; it contained no C5a- or C3a-specific antiserum.
The y-axis in FIG. 2 represents the fraction inhibition. The fraction inhibition is equal to the Counts Bound (CB) for a "sample," less the CB in the "sample with no added compound," divided by the CB for the "no IgG control" less the CB in the "sample with no added compound." [formula]
FIG. 2 is representative of the data plots obtained from the assays described above.

human complement = experiment: Inhibition of complement-mediated hemolysis, human serum, sensitized sheep erythrocytes; assay type: biochemical
Protocol: The ability to inhibit complement was also tested by assaying for inhibition of complement-mediated red cell lysis (hemolysis). The inhibition of hemolysis was determined as a function of compound concentration. The compounds to be tested were diluted in 0.1M Hepes buffer (0.15N NaCl, pH 7.4), and 50 μl were added to each well of a V-bottom microtiter plate. Human serum, used as the complement source, was diluted 1 to 500 in Hepes buffer, and 50 μl were added to each well. Next, commercially available sheep erythrocytes with anti-sheep antibody (Diamedix Cat. No. 789-001) were used as received and added at 100 μl/well to initiate the complement pathway leading to hemolysis. The plate was incubated for 60 minutes at 37° C. and then centrifuged at 500×g for 10 minutes. The supernatants were removed and placed in a flat-bottom microtiter plate. The extent of hemolysis was measured as a function of the sample absorbance at 410 nm. The maximal absorbance (corresponding to maximal hemolysis), Amax, was obtained from the absorbance value of an erythrocyte sample containing only human serum, AS, less the absorbance of a sample containing only the red cells, A0. Thus, Amax =AS -A0. The difference between the absorbance of an erythrocyte sample containing both human serum and inhibitive compound, and the absorbance of a cell sample containing inhibitive compound only, was defined as Asample. The inhibition, IH, was expressed as the fraction (Amax -Asample)/Amax, and IH50 was defined as the concentration of inhibitive compound required to produce a value of IH=1/2.
The 4 substituted spirobenzofuran compounds of example 7 and the disubstituted spirobenzofuran compounds of example 8 were tested for their capacity to inhibit complement-mediated lysis of sheep red blood cells (SRBC) as described in Section 6.6.2 supra with the modification that the human serum used as the complement source was diluted to 1 to 100 in Hepes buffer, instead of […]. The results of the hemolysis assays are shown in FIG. 8 and Tables XI and XII.

[1] = system: interleukin-2 receptor (IL-2R) release; experiment: IL-2R release into supernatant of stimulated PBL cultures (enzyme immunoassay); assay type: cell-based, human; settings: stimulated PBL cultures (FIG. 6)
Protocol: (§1) Release of cell surface interleukin-2 receptor (IL-2R) or CD8 antigen from lymphocytes is a correlate of T cell activation (Rubin et al. J. Immunol. 1985, 135, 3172-77; Rubin et al. Fed. proc. 1985 44, 946; Fujimoto, J. et al. J. Exp. Med. 1983, 159, 752-66; Tomkinson, B. et al. 2d Annual Conference on Clinical Immunol. Washington, D.C., Oct. 30, 1987). In some experiments, the level of IL-2R or CD8 protein released into the supernatant of the PBL cultures was assessed by removing aliquots therefrom just prior to pulsing with ^3 H-thymidine. Commercially available enzyme immunoassay kits (CELLFREE™ IL-2R, Cat. No. CK1020, T Cell Sciences, Inc., Cambridge, Mass., or CELL-FREE™ T8/CD8, Cat. No. CK1040, T Cell Sciences) were used to determine the levels of the two analytes.

CD8 protein release = CD8 protein release into supernatant of stimulated PBL cultures (enzyme immunoassay); assay type: cell-based, human; settings: stimulated PBL cultures (FIG. 7)
Protocol: as §1

[2] = system: cell surface IL-2R expression; experiment: Inhibition of cell surface IL-2R expression, PHA-stimulated PBL, flow cytometry; assay type: cell-based; settings: PHA 72 h, total cell count 5000
Protocol: Compounds were tested for their ability to inhibit T cell activation, as indicated by inhibition of cell-surface IL-2R expression. PBL cultures (1.5 ml; 24-well plates) were stimulated with PHA (1 μg/ml) for 72 hours in the absence or presence of varying amounts of compound 11a. Subsequently, the cells were stained using fluorescein isothiocyanate (FITC)-labeled anti-IL-2R antibody (Act-T-Set IL-2R, Cat. No. AA2009, T Cell Sciences, Inc., Cambridge, Mass.) and analyzed by flow cytometry (Ortho System 30) (Table X).

Work on COc1ccc(C(=O)O)c2c1CC1(CCCCC1)O2 [Compound 11a, 7-carboxy-4-methoxyspiro[benzofuran-2(3H)-cyclohexane]] yielded an IC50 (C3a production) of 22000 µM, an IC50 (human complement; Table VII, human serum, read-out: IHO50) of 1330 µM and an IC50 (human complement; Table XI, human serum diluted 1 to 100, read-out: IH50 Mean) of 1330 µM. The IC50 (human complement; from FIG. 3 plot, read-out: IH50 (the source's name)) was roughly 900 µM, the IL-2R protein release [1] was “inhibitor” and the CD8 protein release (CD8 protein release) was “inhibitor”. For the same molecule, the “Number of Cells Positive for IL-2R” value ([2]; 0.44 nM (so in the source)) was 913, the “Percentage Positive” value ([2]; 0.44 nM (so in the source)) was 18.3 and the “Number of Cells Positive for IL-2R” value ([2]; 1.76 nM (so in the source)) was 225. The “Percentage Positive” value ([2]; 1.76 nM (so in the source)) was 4.5.

From US5808109A, “Compounds that inhibit complement and/or suppress immune activity” (T Cell Sciences, Inc., priority 1995, dated 1998)
